In brackets after ≈: the same amount, converted by molar mass. Like-named read-outs stand apart in the source and are kept apart here. Numbered stars: 1 amine (or outer) side, 2 acyl side, 3 side chain; on linkers, the order of the positions; unused ones are H or OH. Bridge positions count the residues as written; N and C are the ends. Square brackets hold non-standard residues; d marks the D form. Peptide text beside a SMILES is read from it. * marks the point of attachment. X5 = O=C([C@@H]1C[C@@H](OP(=O)(O)O)CN1[*:1])[*:2]; Piperazine(2S-CO,4-Me) = CN1CCN[C@H](C(=O)O)C1; X6 = O=C([C@@H]1CS(=O)(=O)CCN1[*:1])[*:2]; Phe(3-Cl) = N[C@@H](Cc1cccc(Cl)c1)C(=O)O; Morpholine(3S-CO) = O=C(O)[C@@H]1COCCN1; Phe(3-Me) = Cc1cccc(C[C@H](N)C(=O)O)c1; NH(4-Cl-2-F-phenyl) = Fc1cc(Cl)ccc1N*; Pro(4R-Me) = C[C@H]1CN[C@H](C(=O)O)C1; X1 = O=C([C@@H]1CSCCN1[*:1])[*:2]; Hyp = O=C(O)[C@@H]1C[C@@H](O)CN1; NH(4-Me-phenyl) = Cc1ccc(N*)cc1; aThr = C[C@H](O)[C@H](N)C(=O)O; Pip = O=C(O)[C@@H]1CCCCN1; X3 = c1cc2c(cc1N*)OCCO2; CO = O=C([*:1])[*:2]; X2 = Fc1cc(N*)ccc1Cl
Columns and labels:
S. aureus ATCC 29213 = test: Minimal inhibitory concentration, microbroth dilution; assay type: cell-based; conditions: Staphylococcus aureus
Method in brief: (§1)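 Following CLSI M7-A7 microbroth dilution, twofold serial dilutions of compound (top final concentration 200 μM) were combined with an equal volume of broth inoculum at about 10^5 cfu/mL. Plates were incubated aerobically at 37 °C overnight, and the MIC was the lowest concentration preventing visible growth.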

S. aureus USA 300 = test: as above; assay type: cell-based; conditions: Staphylococcus aureus
Method in brief: as §1

MRSA NRS70 = test: as above; assay type: cell-based; conditions: Staphylococcus aureus
Method in brief: as §1

E. faecails = test: as above; assay type: cell-based; conditions: Enterococcus faecalis
Method in brief: as §1

[1] = Plasma protein binding, rapid equilibrium dialysis; assay type: in vitro ADME, mouse
Description: This assay determines plasma protein binding of a drug/compound and free drug concentration in plasma using rapid equilibrium dialysis, which allow the aqueous component of plasma containing the free drug/compound through a dialysis membrane (MWCO˜8,000).
Solutions were prepared at 10 mM in DMSO. Dulbecco's phosphate buffered saline (DPBS; pH 7.4) was obtained from Invitrogen (Carlsbad, Calif.). Single-Use RED (rapid equilibrium dialysis) device was obtained from Thermo scientific (Rockford, Ill.). Human plasma was obtained from Innovative Research INC (Novi, Michigan, Ill).
Sample preparation for plasma protein binding was modified from Waters' method. (Waters et al. (2008) J. Pharm. Sci. 97(10): 4586-95). The Teflon base plate with the RED inserts (MWCO 8 K) were allowed to use without any pre-condition the membrane inserts. Human plasma was thawed and centrifuged at 1000 rpm for 2 min to remove any particulates. Each compound was prepared at 10 μM in human plasma. This was done by adding 1 μL, of drug solution (10 mM in DMSO) to 1000 μL, of human plasma (0.1% DMSO). Spiked plasma solutions (300 μL) were placed into the sample chamber (indicated by the red ring) and 500 μL, of DPBS into the adjacent chamber. The plate was sealed and incubated at 37° C. on an orbital shaker (100 rpm) for 4 hours. After incubation, the seal was removed from the RED plate and the volume of the insert confirmed—little to no volume change occurred. Aliquots (50 μL) were removed from each side of the insert and dispensed into a 96-well deep plate. An equal volume of blank plasma or DPBS was added to the required wells to create analytically identical sample matrices (matrix matching). To each sample 200 μL, of ACN containing 4 μg/mL warfarin IS was added. All of the plates were sealed and mixed well at 600 rpm for 10 min and were centrifuged at 4000 rpm for 20 min. The supernatants (120 μL) were transferred to analytical plates for analysis by LCMS. Conditions for Waters ACQUITY-UPLC-MS-UV system were described separately. The test compound concentrations were quantified in both buffer and plasma chambers via peak areas relative to the internal standard. The percentage of the test compound bound to plasma was calculated on following equations: % Free=(Concentration buffer chamber/concentration plasma chamber)×100% and % Bound=100%-% Free.

[2] = ATCC29213, MIC, read-out: Minimal Inhibitory Concentrations (μM) S. aureus ATCC 29213
[3] = USA300, MIC, read-out: Minimal Inhibitory Concentrations (μM) S. aureus USA 300
[4] = MIC, read-out: Minimal Inhibitory Concentrations (μM) MRSA NRS70
[5] = MIC, read-out: Minimal Inhibitory Concentrations (μM) E. faecails
[6] = ATCC29213, read-out: Minimal Inhibitory Concentrations (μM) S. aureus ATCC 29213, MIC
[7] = USA300, read-out: Minimal Inhibitory Concentrations (μM) S. aureus USA 300, MIC
[8] = read-out: Minimal Inhibitory Concentrations (μM) MRSA NRS70, MIC
[9] = read-out: Minimal Inhibitory Concentrations (μM) E. faecails, MIC
[10] = plasma binding, % Bound, mouse plasma

Structure (SMILES) | MIC (S. aureus ATCC 29213; [2]) | MIC (S. aureus USA 300; [3]) | MIC (MRSA NRS70; [4]) | MIC (E. faecails; [5]) | Mouse ([1]; mouse, 4 h, 10 μM, pH 7.4) | MIC (S. aureus ATCC 29213; [6]) | MIC (S. aureus USA 300; [7]) | MIC (MRSA NRS70; [8]) | MIC (E. faecails; [9]) | Mouse [1, 10]
Cc1cccc(C[C@H](NC(=O)Nc2ccc3c(c2)OCCO3)C(=O)N[C@@H]2C(=O)N3C[C@H](O)C[C@H]3C(=O)N3CCOC[C@H]3C(=O)N[C@@H](C)C(=O)N3C[C@H](C)C[C@H]3C(=O)O[C@H]2C)c1 [Compound 27, (S)-2-(3-(2,3-DIHYDROBENZO[B][1,4]DIOXIN-6-YL)UREIDO)-N-((6AS,8R,12S,13S,15AS,17R,21S,23AS)-8-HYDROXY-13,17,21-TRIMETHYL-6,11,15,20,23-PENTAOXOOCTADECAHYDRO-6H,11H,15H-[1,4]OXAZINO[3,4-I]DIPYRROLO[2,1-C:2′,1′-L][1]OXA[4,7,10,13]TETRAAZACYCLOHEXADECIN-12-YL)-3-(M-TOLYL)PROPANAMIDE] ({X3-CO}-[Phe(3-Me)][aThr][Hyp][Morpholine(3S-CO)]A[Pro(4R-Me)]; ester 2-C) | 10 µM (≈ 8.48 µg/mL) | 20 µM (≈ 17 µg/mL) | 10 µM (≈ 8.48 µg/mL) | 2.5 µM (≈ 2.12 µg/mL) | 93.2 ± 3.2% |  |  |  |  | 
Cc1cccc(C[C@H](NC(=O)Nc2ccc3c(c2)OCCO3)C(=O)N[C@@H]2C(=O)N3C[C@H](O)C[C@H]3C(=O)N3CCCC[C@H]3C(=O)N[C@@H](C)C(=O)N3C[C@H](C)C[C@H]3C(=O)O[C@H]2C)c1 [Compound 28, (S)-2-(3-(2,3-DIHYDROBENZO[B][1,4]DIOXIN-6-YL)UREIDO)-N-((2R,6S,8AS,14AS,16R,20S,21S,23AS)-16-HYDROXY-2,6,21-TRIMETHYL-5,8,14,19,23-PENTAOXOOCTADECAHYDRO-1H,5H,14H,19H-PYRIDO[2,1-I]DIPYRROLO[2,1-C:2′,1′-L][1]OXA[4,7,10,13]TETRAAZACYCLOHEXADECIN-20-YL)-3-(M-TOLYL)PROPANAMIDE] ({X3-CO}-[Phe(3-Me)][aThr][Hyp][Pip]A[Pro(4R-Me)]; ester 2-C) | 2.5 µM (≈ 2.11 µg/mL) | 2.5 µM (≈ 2.11 µg/mL) | 2.5 µM (≈ 2.11 µg/mL) | 0.625 µM (≈ 0.529 µg/mL) | 98.1 ± 8.1% |  |  |  |  | 
Cc1cccc(C[C@H](NC(=O)Nc2ccc(Cl)cc2F)C(=O)N[C@@H]2C(=O)N3C[C@H](OP(=O)(O)O)C[C@H]3C(=O)N3CCCC[C@H]3C(=O)N[C@@H](C)C(=O)N3C[C@H](C)C[C@H]3C(=O)O[C@H]2C)c1 [Compound 29, (2R,6S,8AS,14AS,16R,20S,21S,23AS)-20-((S)-2-(3-(4-CHLORO-2-FLUOROPHENYL)UREIDO)-3-(M-TOLYL)PROPANAMIDO)-2,6,21-TRIMETHYL-5,8,14,19,23-PENTAOXOOCTADECAHYDRO-1H,5H,14H,19H-PYRIDO[2,1-I]DIPYRROLO[2,1-C:2′,1′-L][1]OXA[4,7,10,13]TETRAAZACYCLOHEXADECIN-16-YL DIHYDROGEN PHOSPHATE] ({NH(4-Cl-2-F-phenyl)-CO}-[Phe(3-Me)][aThr][X5][Pip]A[Pro(4R-Me)]; ester 2-C) |  |  |  |  |  | 5 µM | 10 µM | 2.5 µM | 20 µM | 96.9 ± 6.9%
C[C@@H]1C[C@H]2C(=O)O[C@@H](C)[C@H](NC(=O)[C@H](Cc3cccc(Cl)c3)NC(=O)Nc3ccc(Cl)cc3F)C(=O)N3CCC[C@H]3C(=O)N3CCN(C)C[C@H]3C(=O)N[C@@H](C)C(=O)N2C1 [Compound 33] ({NH(4-Cl-2-F-phenyl)-CO}-[Phe(3-Cl)][aThr]P[Piperazine(2S-CO,4-Me)]A[Pro(4R-Me)]; ester 2-C) | 0.078 µM (≈ 0.0671 µg/mL) | 0.078 µM (≈ 0.0671 µg/mL) | 0.039 µM (≈ 0.0335 µg/mL) | 0.078 µM (≈ 0.0671 µg/mL) | 99.5 ± 9.5% |  |  |  |  | 
Cc1cccc(C[C@H](NC(=O)Nc2ccc(Cl)c(F)c2)C(=O)N[C@@H]2C(=O)N3CCC[C@H]3C(=O)N3CCCC[C@H]3C(=O)N[C@@H](C)C(=O)N3C[C@H](C)C[C@H]3C(=O)O[C@H]2C)c1 [Compound 35, (S)-2-(3-(4-CHLORO-3-FLUOROPHENYL)UREIDO)-3-(M-TOLYL)-N-((2R,6S,8AS,14AS,20S,21S,23AS)-2,6,21-TRIMETHYL-5,8,14,19,23-PENTAOXOOCTADECAHYDRO-1H,5H,14H,19H-PYRIDO[2,1-I]DIPYRROLO[2,1-C:2′,1′-L][1]OXA[4,7,10,13]TETRAAZACYCLOHEXADECIN-20-YL)PROPANAMIDE] ({X2-CO}-[Phe(3-Me)][aThr]P[Pip]A[Pro(4R-Me)]; ester 2-C) | 0.625 µM (≈ 0.515 µg/mL) | 0.625 µM (≈ 0.515 µg/mL) | 0.313 µM (≈ 0.258 µg/mL) | 1.25 µM (≈ 1.03 µg/mL) | 99.7 ± 9.7% |  |  |  |  | 
Cc1cccc(C[C@H](NC(=O)Nc2ccc(Cl)cc2F)C(=O)N[C@@H]2C(=O)N3CCC[C@H]3C(=O)N3CCS(=O)(=O)C[C@H]3C(=O)N[C@@H](C)C(=O)N3C[C@H](C)C[C@H]3C(=O)O[C@H]2C)c1 [Compound 40, (S)-2-(3-(4-CHLORO-2-FLUOROPHENYL)UREIDO)-3-(M-TOLYL)-N-((6AS,12S,13S,15AS,17R,21S,23AR)-13,17,21-TRIMETHYL-2,2-DIOXIDO-6,11,15,20,23-PENTAOXOOCTADECAHYDRO-6H,11H,15H-DIPYRROLO[2,1-C:2′,1′-L][1,4]THIAZINO[3,4-I][1]OXA[4,7,10,13]TETRAAZACYCLOHEXADECIN-12-YL)PROPANAMIDE] ({NH(4-Cl-2-F-phenyl)-CO}-[Phe(3-Me)][aThr]P[X6]A[Pro(4R-Me)]; ester 2-C) | 1.25 µM (≈ 1.09 µg/mL) | 1.25 µM (≈ 1.09 µg/mL) | 0.625 µM (≈ 0.546 µg/mL) | 0.625 µM (≈ 0.546 µg/mL) | 99.4 ± 9.4% |  |  |  |  | 
Cc1cccc(C[C@H](NC(=O)Nc2ccc(Cl)cc2F)C(=O)N[C@@H]2C(=O)N3C[C@H](O)C[C@H]3C(=O)N3CCSC[C@H]3C(=O)N[C@@H](C)C(=O)N3C[C@H](C)C[C@H]3C(=O)O[C@H]2C)c1 [Compound 41, (S)-2-(3-(4-CHLORO-2-FLUOROPHENYL)UREIDO)-N-((6AS,8R,12S,13S,15AS,17R,21S,23AR)-8-HYDROXY-13,17,21-TRIMETHYL-6,11,15,20,23-PENTAOXOOCTADECAHYDRO-6H,11H,15H-DIPYRROLO[2,1-C:2′,1′-L][1,4]THIAZINO[3,4-I][1]OXA[4,7,10,13]TETRAAZACYCLOHEXADECIN-12-YL)-3-(M-TOLYL)PROPANAMIDE] ({NH(4-Cl-2-F-phenyl)-CO}-[Phe(3-Me)][aThr][Hyp][X1]A[Pro(4R-Me)]; ester 2-C) | 0.31 µM (≈ 0.266 µg/mL) | 0.31 µM (≈ 0.266 µg/mL) | 0.156 µM (≈ 0.134 µg/mL) | 0.625 µM (≈ 0.536 µg/mL) | 99.9 ± 9.9% |  |  |  |  | 
Cc1ccc(NC(=O)N[C@@H](Cc2cccc(C)c2)C(=O)N[C@@H]2C(=O)N3C[C@H](O)C[C@H]3C(=O)N3CCSC[C@H]3C(=O)N[C@@H](C)C(=O)N3C[C@H](C)C[C@H]3C(=O)O[C@H]2C)cc1 [Compound 42, (S)—N-((6AS,8R,12S,13S,15AS,17R,21S,23AR)-8-HYDROXY-13,17,21-TRIMETHYL-6,11,15,20,23-PENTAOXOOCTADECAHYDRO-6H,11H,15H-DIPYRROLO[2,1-C:2′,1′-L][1,4]THIAZINO[3,4-I][1]OXA[4,7,10,13]TETRAAZACYCLOHEXADECIN-12-YL)-3-(M-TOLYL)-2-(3-(P-TOLYL)UREIDO)PROPANAMIDE] ({NH(4-Me-phenyl)-CO}-[Phe(3-Me)][aThr][Hyp][X1]A[Pro(4R-Me)]; ester 2-C) |  |  |  |  |  | 1.25 µM (≈ 1.02 µg/mL) | 2.5 µM (≈ 2.05 µg/mL) | 1.25 µM (≈ 1.02 µg/mL) | 2.5 µM (≈ 2.05 µg/mL) | 97.4 ± 7.4%

Reference: patent US10570179B2, “Substituted urea depsipeptide analogs as activators of the CLPP endopeptidase” (priority 2016, dated 2020)
